Key:
HCT116 MTAP null cells = test: HCT116 MTAP null cell proliferation / viability (CellTiter-Glo, 6 days); assay type: cell-based; conditions: HCT116-MTAP null, 144 h, HCT116 MTAP null cells, 6 days, CellTiter-Glo; read-out: HCT-116 MTAP null IC50
Procedure, shortened: (§1)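 CellTiter-Glo luminescence, 6-day exposure, RPMI 1640 + 10% FBS. Dosing: 1:3 series (8-9 pts, top 1 or 10 μM) or 1:2 series (22 pts, top 10 or 50 μM), DMSO control. IC50 = 50% of control via curve fit.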

HCT116 WT cells = test: HCT116 WT cell proliferation / viability (CellTiter-Glo, 6 days); assay type: cell-based; conditions: Homo sapiens, HCT-116, 144 h, HCT116 WT cells, 6 days, CellTiter-Glo; read-out: HCT-116 WT IC50
Procedure, shortened: as §1

SMILES	IC50 (HCT116 MTAP null cells) [nM]	IC50 (HCT116 WT cells) [nM]
CC1OCc2c1c(N)nc1ccc(C(=O)N(Cc3ccc(C(F)(F)F)cn3)C3CCOCC3C)cc21 (stereo not drawn) [Example 901, 4-amino-3-methyl-N-(3-methyltetrahydro-2H-pyran-4-yl)-N-((5-(trifluoromethyl)pyridin-2-yl)methyl)-1,3-dihydrofuro[3,4-c]quinoline-8-carboxamide]	42	430
CO[C@@H]1COCC[C@H]1N(Cc1ccc(C(F)(F)F)cn1)C(=O)c1ccc2nc(N)c3c(c2c1)COC3C (stereo partly drawn) [Example 902, 4-amino-N-((3S,4R)-3-methoxytetrahydro-2H-pyran-4-yl)-3-methyl-N-((5-(trifluoromethyl)pyridin-2-yl)methyl)-1,3-dihydrofuro[3,4-c]quinoline-8-carboxamide]	34	330
CO[C@H]1COCC[C@@H]1N(Cc1ccc(C(F)(F)F)cn1)C(=O)c1ccc2nc(N)c3c(c2c1)COC3C (stereo partly drawn) [Example 903, 4-amino-N-((3R,4S)-3-methoxytetrahydro-2H-pyran-4-yl)-3-methyl-N-((5-(trifluoromethyl)pyridin-2-yl)methyl)-1,3-dihydrofuro[3,4-c]quinoline-8-carboxamide]	58	4000
CC1OCc2c1c(N)nc1ccc(C(=O)N(Cc3ccc(C(F)(F)F)cn3)C3CC34CCCCC4)cc21 (stereo not drawn) [Example 905, 4-amino-3-methyl-N-(spiro[2.5]octan-1-yl)-N-((5-(trifluoromethyl)pyridin-2-yl)methyl)-1,3-dihydrofuro[3,4-c]quinoline-8-carboxamide]	80	4600
CC1OCc2c1c(N)nc1ccc(C(=O)N(Cc3ccc(C(F)(F)F)cn3)C3CC34CCCC4)cc21 (stereo not drawn) [Example 909, 4-amino-3-methyl-N-(spiro[2.4]heptan-1-yl)-N-((5-(trifluoromethyl)pyridin-2-yl)methyl)-1,3-dihydrofuro[3,4-c]quinoline-8-carboxamide]	215	8000
CC1OCc2c1c(N)nc1ccc(C(=O)N(Cc3ccc(C#N)cn3)CC3(C#N)CC3)cc21 (stereo not drawn) [Example 913, 4-amino-N-((1-cyanocyclopropyl)methyl)-N-((5-cyanopyridin-2-yl)methyl)-3-methyl-1,3-dihydrofuro[3,4-c]quinoline-8-carboxamide]	49	1700
CN(Cc1ccc(C(F)(F)F)cn1)C(=O)c1ccc2nc(N)c3c(c2c1)COC3(C)C [Example 932, 4-amino-N,3,3-trimethyl-N-((5-(trifluoromethyl)pyridin-2-yl)methyl)-1,3-dihydrofuro[3,4-c]quinoline-8-carboxamide]	860	1700
CCN(Cc1ccc(C(F)(F)F)cn1)C(=O)c1ccc2nc(N)c3c(c2c1)COC3(C)C [Example 933, 4-amino-N-ethyl-3,3-dimethyl-N-((5-(trifluoromethyl)pyridin-2-yl)methyl)-1,3-dihydrofuro[3,4-c]quinoline-8-carboxamide]	560	> 10000
CC(C)N(Cc1ccc(C(F)(F)F)cn1)C(=O)c1ccc2nc(N)c3c(c2c1)COC3(C)C [Example 934, 4-amino-N-isopropyl-3,3-dimethyl-N-((5-(trifluoromethyl)pyridin-2-yl)methyl)-1,3-dihydrofuro[3,4-c]quinoline-8-carboxamide]	79	> 1000
CC1(C)OCc2c1c(N)nc1ccc(C(=O)N(Cc3ccc(C(F)(F)F)cn3)C3CC3)cc21 [Example 935, 4-amino-N-cyclopropyl-3,3-dimethyl-N-((5-(trifluoromethyl)pyridin-2-yl)methyl)-1,3-dihydrofuro[3,4-c]quinoline-8-carboxamide]	630	> 1000
CC(c1ncc(C(F)(F)F)cc1C#N)N(C)C(=O)c1cc2c(cc1F)nc(N)c1cnn(C)c12 (stereo not drawn) [Example 936, 4-amino-N-(1-(3-cyano-5-(trifluoromethyl)pyridin-2-yl)ethyl)-7-fluoro-N,1-dimethyl-1H-pyrazolo[4,3-c]quinoline-8-carboxamide]	721	18700

Other lines, results leading:

IC50 (HCT116 MTAP null cells) [nM]	IC50 (HCT116 WT cells) [nM]	SMILES
130	9700	CC1OCc2c1c(N)nc1ccc(C(=O)N(Cc3ccc(C(F)(F)F)cn3)C3CCOC3)cc21 (stereo not drawn) [Example 899, 4-amino-3-methyl-N-(tetrahydrofuran-3-yl)-N-((5-(trifluoromethyl)pyridin-2-yl)methyl)-1,3-dihydrofuro[3,4-c]quinoline-8-carboxamide]
290	> 10000	CC1OCc2c1c(N)nc1ccc(C(=O)N(Cc3ccc(C(F)(F)F)cn3)[C@H]3[C@@H]4COC[C@@H]43)cc21 (stereo partly drawn) [Example 900, 4-amino-N-((1R,5S,6r)-3-oxabicyclo[3.1.0]hexan-6-yl)-3-methyl-N-((5-(trifluoromethyl)pyridin-2-yl)methyl)-1,3-dihydrofuro[3,4-c]quinoline-8-carboxamide]
31	1600	CC1OCc2c1c(N)nc1ccc(C(=O)N(Cc3ccc(C(F)(F)F)cn3)C3CC3C3CC3)cc21 (stereo not drawn) [Example 904, N-([1,1′-bi(cyclopropan)]-2-yl)-4-amino-3-methyl-N-((5-(trifluoromethyl)pyridin-2-yl)methyl)-1,3-dihydrofuro[3,4-c]quinoline-8-carboxamide]
40	> 1000	CCOC1CC1N(Cc1ccc(C(F)(F)F)cn1)C(=O)c1ccc2nc(N)c3c(c2c1)COC3C (stereo not drawn) [Example 907, 4-amino-N-(2-ethoxycyclopropyl)-3-methyl-N-((5-(trifluoromethyl)pyridin-2-yl)methyl)-1,3-dihydrofuro[3,4-c]quinoline-8-carboxamide]
123	6200	CC1OCc2c1c(N)nc1ccc(C(=O)N(Cc3ccc(C(F)(F)F)cn3)C3CC3(C)C)cc21 (stereo not drawn) [Example 908, 4-amino-N-(2,2-dimethylcyclopropyl)-3-methyl-N-((5-(trifluoromethyl)pyridin-2-yl)methyl)-1,3-dihydrofuro[3,4-c]quinoline-8-carboxamide]
21	173	CC1OCc2c1c(N)nc1ccc(C(=O)N(Cc3ccc(C(F)(F)F)cn3)[C@H](C)c3ncccn3)cc21 (stereo partly drawn) [Example 911, 4-amino-3-methyl-N-((R)-1-(pyrimidin-2-yl)ethyl)-N-((5-(trifluoromethyl)pyridin-2-yl)methyl)-1,3-dihydrofuro[3,4-c]quinoline-8-carboxamide]
29	4200	CC1OCc2c1c(N)nc1ccc(C(=O)N(CC3=CCCOC3)Cc3ccc(C(F)(F)F)cn3)cc21 (stereo not drawn) [Example 915, 4-amino-N-((5,6-dihydro-2H-pyran-3-yl)methyl)-3-methyl-N-((5-(trifluoromethyl)pyridin-2-yl)methyl)-1,3-dihydrofuro[3,4-c]quinoline-8-carboxamide]
6	200	CC1OCc2c1c(N)nc1ccc(C(=O)N(Cc3ccc(C(F)(F)F)cn3)Cc3ccnc4[nH]ccc34)cc21 (stereo not drawn) [Example 916, N-((1H-pyrrolo[2,3-b]pyridin-4-yl)methyl)-4-amino-3-methyl-N-((5-(trifluoromethyl)pyridin-2-yl)methyl)-1,3-dihydrofuro[3,4-c]quinoline-8-carboxamide]
17	1560	CC1OCc2c1c(N)nc1ccc(C(=O)N(Cc3ccc(C(F)(F)F)cn3)CC3(C#N)CC3)cc21 (stereo not drawn) [Example 917, 4-amino-N-((1-cyanocyclopropyl)methyl)-3-methyl-N-((5-(trifluoromethyl)pyridin-2-yl)methyl)-1,3-dihydrofuro[3,4-c]quinoline-8-carboxamide]
54	> 1000	CC1OCc2c1c(N)nc1ccc(C(=O)N(Cc3ccc(C(F)(F)F)cn3)Cc3cnc(N)s3)cc21 (stereo not drawn) [Example 918, 4-amino-N-((2-aminothiazol-5-yl)methyl)-3-methyl-N-((5-(trifluoromethyl)pyridin-2-yl)methyl)-1,3-dihydrofuro[3,4-c]quinoline-8-carboxamide]
200	> 1000	CC1OCc2c1c(N)nc1ccc(C(=O)N(C)Cc3ccc(C(F)(F)F)cn3)cc21 (stereo not drawn) [Example 929, 4-amino-N,3-dimethyl-N-((5-(trifluoromethyl)pyridin-2-yl)methyl)-1,3-dihydrofuro[3,4-c]quinoline-8-carboxamide]
61	> 10000	CCN(Cc1ccc(C(F)(F)F)cn1)C(=O)c1ccc2nc(N)c3c(c2c1)COC3C (stereo not drawn) [Example 930, 4-amino-N-ethyl-3-methyl-N-((5-(trifluoromethyl)pyridin-2-yl)methyl)-1,3-dihydrofuro[3,4-c]quinoline-8-carboxamide]
72	9600	CC1OCc2c1c(N)nc1ccc(C(=O)N(Cc3ccc(C(F)(F)F)cn3)C(C)C)cc21 (stereo not drawn) [Example 931, 4-amino-N-isopropyl-3-methyl-N-((5-(trifluoromethyl)pyridin-2-yl)methyl)-1,3-dihydrofuro[3,4-c]quinoline-8-carboxamide]
